The results in this text go back to patent US20240199542A1, “SUBSTITUTED PYRROLIDIN-2-ONES, SALTS THEREOF AND THEIR USE AS HERBICIDALLY ACTIVE SUBSTANCES” (Bayer Aktiengesellschaft, priority 2021, published 2024).

Assay type in all cases: in vivo
The test system of assay [1] is Poa annua (POAAN). Briefly: Herbicidal post-emergence action. The conditions noted are these: 1280 g/ha, assessed after ca. 3 weeks. Summed up: (§1)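 Visual % herbicidal effect versus untreated controls, scored ~3 weeks after spraying; 100% = dead, 0% = like control. Single-leaf-stage greenhouse plants, sprayed with WP/EC in aqueous spray + 0.5% additive, 600 l/ha, at 1280 or 320 g/ha.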

Assay [2] deals with Poa annua (POAAN). Briefly: Herbicidal pre-emergence action. The conditions noted are these: 1280 g/ha, graded after ca. 3 weeks. The method, boiled down: (§2)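 Percent herbicidal effect, from 0% (as untreated) to 100% (plants dead), was graded visually about 3 weeks after treatment under optimal greenhouse conditions. Compounds, as WP or EC with 0.5% additive in 600 l water/ha at up to 1280 g/ha, were applied to covering soil over freshly sown seeds in sandy loam.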

The test system of assay [3] is Alopecurus myosuroides (ALOMY). Briefly: Herbicidal post-emergence action. As to conditions: 1280 g/ha, assessed after ca. 3 weeks. The method, boiled down: as §1
In assay [4] the test system is Echinochloa crus-galli (ECHCG). Briefly: Herbicidal post-emergence action. The conditions noted are these: 1280 g/ha, assessed after ca. 3 weeks. Summed up:
as §1

Assay [5] relates to Cyperus esculentus (CYPES). Briefly: Herbicidal pre-emergence action. The conditions noted are these: 1280 g/ha, graded after ca. 3 weeks. The method, boiled down:
as §2

Assay [6] deals with Pharbitis purpurea (PHBPU). Briefly: Herbicidal pre-emergence action. The conditions noted are these: 1280 g/ha, graded after ca. 3 weeks. Summed up: as §2
Assay [7] has as its system Setaria viridis (SETVI). Put plainly: Herbicidal pre-emergence action. As to conditions: 1280 g/ha, graded after ca. 3 weeks. The method, boiled down: as §2
In assay [8] the test system is Matricaria inodora (MATIN). Put plainly: Herbicidal pre-emergence action. The conditions noted are these: 1280 g/ha, graded after ca. 3 weeks. The method, boiled down:
as §2

The test system of assay [9] is Veronica persica (VERPE). Briefly: Herbicidal pre-emergence action. The conditions noted are these: 1280 g/ha, graded after ca. 3 weeks. Summed up: as §2
In assay [10] the test system is Avena fatua (AVEFA). Briefly: Herbicidal pre-emergence action. The conditions noted are these: 1280 g/ha, graded after ca. 3 weeks. The method, boiled down:
as §2

Assay [11] has as its system Alopecurus myosuroides (ALOMY). Briefly: Herbicidal pre-emergence action. As to conditions: 1280 g/ha, graded after ca. 3 weeks. Summed up:
as §2

The test system of assay [12] is Echinochloa crus-galli (ECHCG). Briefly: Herbicidal pre-emergence action. The conditions noted are these: 1280 g/ha, graded after ca. 3 weeks. The method, boiled down: as §2
For assay [13], the system named is Amaranthus retroflexus (AMARE). Briefly: Herbicidal pre-emergence action. As to conditions: 1280 g/ha, graded after ca. 3 weeks. The method, boiled down:
as §2

In assay [14] the test system is Setaria viridis (SETVI). Briefly: Herbicidal post-emergence action. The conditions noted are these: 1280 g/ha, assessed after ca. 3 weeks. Summed up:
as §1

Assay [15] has as its system Stellaria media (STEME). Briefly: Herbicidal post-emergence action. As to conditions: 1280 g/ha, assessed after ca. 3 weeks. The method, boiled down: as §1
In assay [16] the test system is Avena fatua (AVEFA). Briefly: Herbicidal post-emergence action. As to conditions: 1280 g/ha, assessed after ca. 3 weeks. The method, boiled down: as §1
The subject of assay [17] is Stellaria media (STEME). Briefly: Herbicidal pre-emergence action. As to conditions: 1280 g/ha, graded after ca. 3 weeks. Summed up: as §2

Turning to `O=C(CC1CCC(=O)N1Cc1cccc(F)c1F)Nc1ncns1` (stereo not drawn) [Example I-193, 2-[1-[(2,3-difluorophenyl)methyl]-5-oxo-pyrrolidin-2-yl]-N-(1,2,4-thiadiazol-5-yl)acetamide], in assay [1], the “Post-emergence activity against POAAN” value came to 90%. Further, the “Pre-emergence activity against POAAN” value in assay [2] stood at 90%.
Regarding `O=C(CC1CCC(=O)N1Cc1cccc(F)c1F)OCCOc1ccc(Cl)cc1` (racemic) [Example I-033], the “Post-emergence activity against ALOMY” value in assay [3] is 80%. The “Post-emergence activity against ECHCG” value in assay [4] was determined as 80%. For the same compound, the “Pre-emergence activity against CYPES” value in assay [5] is recorded as 80%. Moreover, the “Pre-emergence activity against PHBPU” value in assay [6] is given as 80%. In addition, in [7], the “Pre-emergence activity against SETVI” value amounted to 80%. For the same compound, the “Pre-emergence activity against MATIN” value in [8] turned out to be 80%. Moreover, the “Pre-emergence activity against VERPE” value in assay [9] is 90%. Moreover, the “Pre-emergence activity against AVEFA” value in assay [10] was determined as 100%. Moreover, the “Pre-emergence activity against ALOMY” value in [11] is reported as 90%. In assay [12], the “Pre-emergence activity against ECHCG” value turned out to be 80%.
With `O=C(CC1CCC(=O)N1Cc1cccc(F)c1F)NCc1ccccc1` (racemic) [Example I-055], the “Pre-emergence activity against CYPES” value in assay [5] is listed as 100%. In assay [13], the “Pre-emergence activity against AMARE” value is 100%. For the same compound, in assay [10], the “Pre-emergence activity against AVEFA” value is reported as 80%.
As for `CC1(C)CC(=O)C(C(=O)CC2CCC(=O)N2Cc2cccc(F)c2F)C(=O)C1` (racemic) [Example I-179], in assay [14], the “Post-emergence activity against SETVI” value came to 80%. For the same compound, the “Post-emergence activity against STEME” value in assay [15] was found to be 80%. Moreover, in assay [16], the “Post-emergence activity against AVEFA” value is given as 90%. For the same compound, in [4], the “Post-emergence activity against ECHCG” value came to 90%. In addition, the “Pre-emergence activity against STEME” value in [17] is reported as 80%. Besides, the “Pre-emergence activity against AVEFA” value in assay [10] is listed as 90%.
